Results on five compounds are retold here after article PMC3556224 (Journal of natural products, 2013).

For one test, the target named is T1, hiCE (Homo sapiens, UniProt O00748).
T1 sequence (O00748 27-559): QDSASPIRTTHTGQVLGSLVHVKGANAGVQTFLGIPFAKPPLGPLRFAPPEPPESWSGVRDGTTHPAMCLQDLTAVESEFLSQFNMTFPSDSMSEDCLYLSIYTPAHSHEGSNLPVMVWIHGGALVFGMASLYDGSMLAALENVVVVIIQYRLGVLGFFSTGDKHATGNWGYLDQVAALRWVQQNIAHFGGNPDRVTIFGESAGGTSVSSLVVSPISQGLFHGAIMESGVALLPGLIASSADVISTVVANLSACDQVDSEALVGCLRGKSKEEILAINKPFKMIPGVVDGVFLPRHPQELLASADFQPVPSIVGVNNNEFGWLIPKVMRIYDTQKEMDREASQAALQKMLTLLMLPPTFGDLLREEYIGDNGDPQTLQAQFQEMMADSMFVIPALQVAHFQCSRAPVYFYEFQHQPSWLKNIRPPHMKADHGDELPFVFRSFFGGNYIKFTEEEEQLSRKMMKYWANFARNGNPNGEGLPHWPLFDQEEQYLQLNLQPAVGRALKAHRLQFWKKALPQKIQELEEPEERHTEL
It counts as cell-based. The note with it: 4-MUA, U373MG cells.

A further test deals with hBChE (Homo sapiens, UniProt P06276). The test is described as follows: Inhibition of hBChE with butyrylthiocholine as substrate. In kind it is biochemical.
Sequence of hBChE (P06276 29-602): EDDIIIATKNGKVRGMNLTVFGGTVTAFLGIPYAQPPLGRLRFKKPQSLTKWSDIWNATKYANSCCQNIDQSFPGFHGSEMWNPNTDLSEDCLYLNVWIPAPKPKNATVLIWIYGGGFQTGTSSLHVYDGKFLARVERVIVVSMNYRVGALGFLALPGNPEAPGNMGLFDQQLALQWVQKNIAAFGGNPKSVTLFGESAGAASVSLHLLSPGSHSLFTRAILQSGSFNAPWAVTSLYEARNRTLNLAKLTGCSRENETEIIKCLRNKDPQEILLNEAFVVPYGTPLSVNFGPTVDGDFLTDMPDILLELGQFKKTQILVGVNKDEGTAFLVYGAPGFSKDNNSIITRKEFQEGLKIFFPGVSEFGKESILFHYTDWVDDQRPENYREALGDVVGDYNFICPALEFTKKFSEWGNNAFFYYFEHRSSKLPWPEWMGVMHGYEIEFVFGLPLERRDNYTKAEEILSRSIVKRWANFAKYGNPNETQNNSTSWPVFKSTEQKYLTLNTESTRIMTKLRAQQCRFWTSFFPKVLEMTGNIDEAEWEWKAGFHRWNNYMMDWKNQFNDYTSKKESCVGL
In a further test the target is hAChE (Homo sapiens, UniProt P22303). Description: Inhibition of hAChE with acetylthiocholine as substrate. In kind it is biochemical.
Sequence of hAChE (P22303 32-614): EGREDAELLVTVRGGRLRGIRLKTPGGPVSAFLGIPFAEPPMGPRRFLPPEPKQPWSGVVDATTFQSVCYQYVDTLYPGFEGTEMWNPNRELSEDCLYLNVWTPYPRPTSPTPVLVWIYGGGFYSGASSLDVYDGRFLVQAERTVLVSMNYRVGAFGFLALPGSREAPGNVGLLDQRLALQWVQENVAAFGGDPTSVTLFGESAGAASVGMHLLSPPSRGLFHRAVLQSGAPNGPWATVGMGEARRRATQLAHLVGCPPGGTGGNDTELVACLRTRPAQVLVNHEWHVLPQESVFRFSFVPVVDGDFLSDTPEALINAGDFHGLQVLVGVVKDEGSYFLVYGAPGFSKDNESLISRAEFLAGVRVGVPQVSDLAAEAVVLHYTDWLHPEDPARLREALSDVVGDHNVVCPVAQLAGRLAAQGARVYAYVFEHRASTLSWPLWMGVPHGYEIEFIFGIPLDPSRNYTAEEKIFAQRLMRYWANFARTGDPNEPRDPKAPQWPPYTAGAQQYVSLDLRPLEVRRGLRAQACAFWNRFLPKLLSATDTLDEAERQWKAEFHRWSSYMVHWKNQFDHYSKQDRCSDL

Take `Cc1c(S(=O)(=O)[O-])oc2c1C(=O)C(=O)c1c-2ccc2c1CCCC2(C)C.[Na+]` [compound 25, 6,7,8,9,10,11-hexahydro-1,6,6-trimethyl-10,11-dioxo-phenanthro[1,2-b] furan-2-sulfonic acid, sodium salt]: the “intracellular inhibition of hiCE (in words)” value on hiCE is “failed to inhibit”.

By Ki is commonly meant the dissociation constant of the complex between target and ligand, obtained from inhibition or displacement. Read a low Ki as a stronger hold on the target. For `Cc1coc2c1C(=O)C(=O)c1c-2ccc2c(C)cccc12` [compound 21, 1,6-dimethyl-phenanthro [1,2-b] furan-10,11-dione], the Ki on hBChE was over 100 µM.

`Cc1cccc2c3c(ccc12)C1=C(C(=O)C3=O)[C@@H](C)CO1` [compound 22, 1,2-dihydro-1,6-dimethyl-(1R)-phenanthro [1,2-b] uran-10,11-dione]: on hAChE, the “inhibition of hAChE (in words)” value is recorded as “modest activity”. Also, on hBChE, the inhibition constant (Ki) is over 100 µM and the “inhibition of hBChE (in words)” value is given as “not BChE”.

With `C[C@H]1COC2=C1C(=O)C(=O)c1c2ccc2c1CCCC2(C)C` [compound 24, 1,2,6,7,8,9-hexahydro-1,6,6-trimethyl-(1R)-phenanthro [1,2-b] furan-10,11-dione], the “inhibition of hAChE (in words)” value against hAChE is “modest activity”. The “inhibition of hBChE (in words)” value at hBChE is on record as “not BChE”.

As to `Cc1coc2c1C(=O)C(=O)c1c-2ccc2c1CCCC2(C)C` [compound 7, 1,6,6-trimethyl-6,7,8,9-tetrahydrophenanthro[1,2-b] furan-10,11-dione], the “inhibition of hAChE (in words)” value on hAChE was “did not inhibit”. Further, on hBChE, the Ki was over 100 µM and the “inhibition of hBChE (in words)” value was “did not inhibit”.
